The source of these data is patent US8633242B2, “Benzylidene indanones and processes for preparation and use thereof” (Council of Scientific and Industrial Research, priority 2011, dated 2014).

For one series, the system named is THP-1 (Leukemia). Nature of the series: Sulphorhodamine B cytotoxicity assay, THP-1. Details: key to Human cancer cell lines IC50, THP-1 (Leukemia): Inactive: inactive, if IC50 > 100 μM. The format is cell-based, human. The following applies: SRB assay, 48 hours incubation. On the procedure: (§1) The benzylidene analogues were evaluated by Sulphorhodamine B Assay as per reported method [Skehan et al., J. Natl. Cancer Inst. 1990, 82, 1107]. The human cancer cell lines procured from National Cancer institute, Frederick, U.S.A. were used in present study. Cells were grown in tissue culture flasks in complete growth medium (RPMI-1640 medium with 2 mM glutamine, pH 7.4 supplemented with 10% fetal bovine serum, 100 μg/ml streptomycin and 100 units/ml penicillin) in a carbon dioxide incubator (37° C., 5% CO2, 90% RH). The cells at subconfluent stage were harvested from the flask by treatment with trypsin (0.05% in PBS (pH 7.4) containing 0.02% EDTA). Cells with viability of more than 98%, as determined by trypan blue exclusion, were used for determination of cytotoxicity. The cell suspension required concentration of cells was prepared in complete growth medium. Stock solution of 2×10^−2 M of compounds were prepared in DMSO and further dilution was carried out complete growth medium containing 50 μg/ml of gentamycin to obtained working test solution of required concentration. In vitro cytotoxicity against various human cancer cell lines was determined using 96-well cell culture plates. The 100 μl of cell suspension was added to each well of the 96-well cell culture plates. The cells were allowed to grow in CO2 incubator (37° C., 5% CO2, 90% RH) for 24 hours. The test materials in complete growth medium (100 μl) were added after 24 hours incubation to the wells containing cell suspension. The plates were further incubated for 48 hours (37° C. in an atmosphere of 5% CO2 and 90% relative humidity) in a carbon dioxide incubator after addition of test material and then the cell growth was stopped by gently layering trichloroacetic acid (50% TCA, 50 μl) on top of the medium in all the wells. The plates were incubated at 4° C. for one hour to fix the cells attached to the bottom of the wells. The liquid of all the wells was gently pipetted out and discarded. The plates were washed five times with distilled water to remove TCA, growth medium low molecular weight metabolites, serum proteins etc. and air-dried. Cell growth was measured by staining with sulforhodamine B dye. The adsorbed dye was dissolved in Tris-HCl Buffer (100 μl/well, 0.01M, pH 10.4) and plates were gently stirred for 10 minutes on a mechanical stirrer. The optical density (OD) was recorded on ELISA reader at 540 nm. 5-Fluorouracil, Paclitaxel (Taxol), Mitomycin-c and Adriamycin were used as positive controls.
For orientation: The SRB assay estimates cell density from bound dye.

The test system of another series is PC-3 (prostate). The series is described as follows: Sulphorhodamine B cytotoxicity assay, PC-3. The format is cell-based, human. Further details: key to Human cancer cell lines IC50, PC-3 (prostate): Inactive: inactive, if IC50 > 100 μM. Conditions: SRB assay, 48 hours incubation. On the procedure:
as §1

The test system of a further series is HeLa (Cervix). Nature of the series: Sulphorhodamine B cytotoxicity assay, HeLa. Format: cell-based, human. Further details: key to Human cancer cell lines IC50, HeLa (Cervix): Inactive: inactive, if IC50 > 100 μM. The following applies: SRB assay, 48 hours incubation. On the procedure: as §1
For a further series, the system named is A549 (Lung). Nature of the series: Sulphorhodamine B cytotoxicity assay, A549. Format: cell-based, human. Further details: key to Human cancer cell lines IC50, A549 (Lung): Inactive: inactive, if IC50 > 100 μM. The following applies: SRB assay, 48 hours incubation. On the procedure: as §1
A further series relates to tubulin protein. The series is described as follows: In-vitro tubulin polymerisation inhibition assay. The format is biochemical. Details: key to Tubulin polymerisation inhibition IC50: Inactive: inactive, if IC50 > 10 μM. The following applies: tubulin 3 mg/mL, 37° C., 340 nm, 1 h. On the procedure:
The tubulin polymerization experiment was performed using ‘assay kit’ (Cytoskeleton USA) following manufacturer's protocol based on the procedure described by of Shelanski et al. (1973) and Lee et al. (1977). Briefly, tubulin protein (3 mg/mL) in tubulin polymerization buffer (80 mM PIPES, pH 6.9, 2 mM MgCl2, 0.5 mM EGTA, 1 mM GTP and 15% glycerol) was placed in pre-warmed 96-well microtiter plates at 37° C. in the presence of test compounds with variable concentrations. All samples were mixed well and polymerization was monitored kinetically at 340 nm every min for 1 h using a Spectramax plate reader. Podophyllotoxin and etoposide were used as positive controls and DMSO as negative control. The IC50 value was determined from dose-dependent analysis and is defined as the concentration that inhibits the rate of polymerization by 50%.
Podophyllotoxin and etoposide, standard tubulin polymerisation inhibitors were used as positive controls.

Another series has as its system MCF-7 (Breast cancer). The series is described as follows: Sulphorhodamine B cytotoxicity assay, MCF-7. The following applies: SRB assay, 48 hours incubation. Further details: key to Human cancer cell lines IC50, MCF-7 (Breast cancer): Inactive: inactive, if IC50 > 100 μM. Format: cell-based, human. On the procedure:
as §1

The next series has as its system HCT (Colon). Nature of the series: Sulphorhodamine B cytotoxicity assay, HCT. Format: cell-based, human. Further details: key to Human cancer cell lines IC50, HCT (Colon): Inactive: inactive, if IC50 > 100 μM. The following applies: SRB assay, 48 hours incubation. On the procedure:
as §1

In a further series the test system is DU-145 (prostate). The series is described as follows: Sulphorhodamine B cytotoxicity assay, DU-145. The following applies: SRB assay, 48 hours incubation. Further details: key to Human cancer cell lines IC50, DU-145 (prostate): Inactive: inactive, if IC50 > 100 μM. The format is cell-based, human. On the procedure: as §1

Broadly, the melting point is the temperature, or range, at which the solid turns liquid. For `COc1cc(C2/C(=C/c3cccc([N+](=O)[O-])c3)C(=O)c3cc(OC)c(OC)c(OC)c32)cc(OC)c1OC` (stereo not drawn) [Compound 12, 2-(3″-nitrobenzylidene),3-(3′,4′,5′-trimethoxyphenyl)-4,5,6-trimethoxy indan-1-one], the melting point lay in the range of 215 to 217 °C. Also, the “Human cancer cell lines IC50, THP-1 (Leukemia)” value in the series on THP-1 (Leukemia) is “Inactive”. Also, in the series with PC-3 (prostate), the “Human cancer cell lines IC50, PC-3 (prostate)” value is “Inactive”. For the same compound, the “Human cancer cell lines IC50, HeLa (Cervix)” value in the series on HeLa (Cervix) was “Inactive”. The “Human cancer cell lines IC50, A549 (Lung)” value in the series with A549 (Lung) was “Inactive”. Moreover, the “Tubulin polymerisation inhibition IC50” value in the series on tubulin protein is reported as “Inactive”. The “Human cancer cell lines IC50, MCF-7 (Breast cancer)” value with MCF-7 (Breast cancer) is “Inactive”. Besides, the “Human cancer cell lines IC50, HCT (Colon)” value in the series with HCT (Colon) is reported as “Inactive”. In the series on DU-145 (prostate), the “Human cancer cell lines IC50, DU-145 (prostate)” value is “Inactive”.

For orientation: IC50 means the concentration needed to halve the response being measured. Regarding `COc1cc(C2/C(=C/c3ccc(OCc4ccccc4)cc3)C(=O)c3cc(OC)c(OC)c(OC)c32)cc(OC)c1OC` (stereo not drawn) [Compound 22, 2-(4″-benzyloxybenzylidene), 3-(3′,4′,5′-trimethoxyphenyl)-4,5,6-trimethoxy indan-1-one], the melting point was in the range of 188 to 190 °C. For the same compound, the “Human cancer cell lines IC50, THP-1 (Leukemia)” value with THP-1 (Leukemia) is reported as “Inactive”. Moreover, the IC50 in the series with PC-3 (prostate) (Homo sapiens, read-out: Human cancer cell lines IC50, PC-3 (prostate)) was 78.9 µM. Besides, the “Human cancer cell lines IC50, HeLa (Cervix)” value in the series with HeLa (Cervix) is on record as “Inactive”. In addition, in the series on A549 (Lung), the “Human cancer cell lines IC50, A549 (Lung)” value is reported as “Inactive”. Besides, in the series on tubulin protein, the “Tubulin polymerisation inhibition IC50” value is on record as “Inactive”. Moreover, the “Human cancer cell lines IC50, MCF-7 (Breast cancer)” value in the series on MCF-7 (Breast cancer) is listed as “Inactive”. For the same compound, the “Human cancer cell lines IC50, HCT (Colon)” value in the series with HCT (Colon) is “Inactive”. Further, the IC50 in the series with DU-145 (prostate) (Homo sapiens, DU-145, read-out: Human cancer cell lines IC50, DU-145 (prostate)) was determined as 78.9 µM.
